For one test, the target named is T1, TRPML1 (Homo sapiens, UniProt Q9GZU1).
T1 construct: expressed in transfected cells; host or cells: HEK T-REx cells stably expressing GCaMP6f and TRPML1
Kind of test: Cellular TRPML1 assay (FLIPR, GCaMP6f calcium read-out). The format is cell-based. To be noted: HEKT-REx/GCaMP6f/TRPML1 cells, FLIPR TETRA, kinetic response over 300 seconds; read-out: TRPML1 FLIPR pEC50 (converted). The gist of the method:
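HEK T-REx cells stably expressing TRPML1 and GCaMP6f, seeded 24 h before in Optimem + 0.5% FBS. After ~10 min pre-incubation at room temperature, compounds in Ca2+-free Tyrode's buffer were injected on FLIPR Tetra (final DMSO 0.5%). Calcium fluorescence kinetics followed for 300 s.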

Another test deals with TFEB. Kind of test: TFEB translocation assay (TFEB reporter in U2OS cells, imaging). It is filed as cell-based. To be noted: Homo sapiens, read-out: TFEB Translocation pEC50 (converted). The gist of the method: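 U2OS cells stably expressing mRFP-fused TFEB reporter, switched to Opti-MEM then treated 2 h at 37 °C with compounds (0.5% DMSO, 0.015% Tween 80). Hoechst-stained, PFA-fixed cells imaged at 20×; nucleus/cytoplasm intensity ratio per well normalized to Torin-1 (100%) and DMSO (0%).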

[1] abbreviates: U2OS cell line with TFEB reporter, 2 hours incubation, nucleus to cytoplasm ratio, normalized to Torin-1.

Molecules are shown by their SMILES. Read-outs that look alike come from different tables or passages of the source.

T1 sequence (Q9GZU1 whole entry): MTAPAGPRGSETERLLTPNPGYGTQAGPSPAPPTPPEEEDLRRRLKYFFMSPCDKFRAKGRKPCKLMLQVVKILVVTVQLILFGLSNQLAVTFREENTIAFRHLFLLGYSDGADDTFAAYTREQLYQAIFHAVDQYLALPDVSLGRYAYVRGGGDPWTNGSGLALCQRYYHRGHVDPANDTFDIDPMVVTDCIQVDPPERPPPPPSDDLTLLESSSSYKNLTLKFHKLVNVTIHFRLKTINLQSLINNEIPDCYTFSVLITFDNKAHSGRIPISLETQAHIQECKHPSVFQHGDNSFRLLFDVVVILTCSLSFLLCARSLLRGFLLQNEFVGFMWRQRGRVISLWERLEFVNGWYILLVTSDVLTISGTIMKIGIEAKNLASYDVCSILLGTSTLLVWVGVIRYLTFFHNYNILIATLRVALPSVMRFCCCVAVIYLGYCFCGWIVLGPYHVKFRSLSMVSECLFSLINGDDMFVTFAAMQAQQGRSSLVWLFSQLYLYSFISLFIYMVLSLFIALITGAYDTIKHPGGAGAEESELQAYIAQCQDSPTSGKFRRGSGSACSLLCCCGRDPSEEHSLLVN

For the compound `CCC1(OC)CN(c2nc(C(=O)Nc3cc(C)c(OC4CC5CC(C5)C4)c(F)c3)c(CCF)o2)C1` (stereo not shown) [Example 277, N-(4-(bicyclo[3.1.1]heptan-3-yloxy)-3-fluoro-5-methylphenyl)-2-(3-ethyl-3-methoxyazetidin-1-yl)-5-(2-fluoroethyl)oxazole-4-carboxamide], the EC50 at TRPML1 and in the test with TFEB (setting [1]) was 10 to 1000 nM throughout.
`O=C(Nc1ccc(N2CCCCC2)c(F)c1)c1nc(N2CCCC2)oc1CC(F)(F)F` [Example 32, N-(3-fluoro-4-(piperidin-1-yl)phenyl)-2-(pyrrolidin-1-yl)-5-(2,2,2-trifluoroethyl)oxazole-4-carboxamide]: the EC50 at TRPML1 and in the test on TFEB (setting [1]) was 1000 to 10000 nM each time.
For `CCc1oc(N2CC(C)(OC)C2)nc1C(=O)Nc1cc(F)c(O[C@@H]2C[C@@H]3C[C@@H]3C2)c(Cl)c1` [Example 223, N-(4-(cis-bicyclo[3.1.0]hexan-3-yloxy)-3-chloro-5-fluorophenyl)-5-ethyl-2-(3-methoxy-3-methylazetidin-1-yl)oxazole-4-carboxamide], the EC50 on TRPML1 and in the test with TFEB (setting [1]) was 10 to 1000 nM in each case.
As for `CCc1oc(N2CC(C)(OC)C2)nc1C(=O)Nc1cc(F)c(O[C@@H]2C[C@@H]3C[C@@H]3C2)c(F)c1` [Example 239, N-(4-(cis-bicyclo[3.1.0]hexan-3-yloxy)-3,5-difluorophenyl)-5-ethyl-2-(3-methoxy-3-methylazetidin-1-yl)oxazole-4-carboxamide], the EC50 at TRPML1 and in the test on TFEB (setting [1]) was 10 to 1000 nM in each case.
`CCC1(CO)CN(c2nc(C(=O)Nc3cc(F)c(O[C@@H]4C[C@@H]5C[C@@H]5C4)c(Cl)c3)c(CC(F)(F)F)o2)C1` [Example 126, N-(4-(cis-bicyclo[3.1.0]hexan-3-yloxy)-3-chloro-5-fluorophenyl)-2-(3-ethyl-3-(hydroxymethyl)azetidin-1-yl)-5-(2,2,2-trifluoroethyl)oxazole-4-carboxamide]: the EC50 at TRPML1 and in the test with TFEB (setting [1]) was 10 to 1000 nM each time.
Take `CCc1oc(N2CCCC2)nc1C(=O)Nc1cc(F)c(OC2CC3CC(C3)C2)c(F)c1` (stereo not shown) [Example 229, N-(4-(bicyclo[3.1.1]heptan-3-yloxy)-3,5-difluorophenyl)-5-ethyl-2-(pyrrolidin-1-yl)oxazole-4-carboxamide]: the EC50 at TRPML1 and with TFEB (setting [1]) was 10 to 1000 nM throughout.
In the case of `Cc1oc(N2CCCC2)nc1C(=O)Nc1ccc(OC2CCCC2)c(F)c1` [Example 120, N-(4-(cyclopentyloxy)-3-fluorophenyl)-5-methyl-2-(pyrrolidin-1-yl)oxazole-4-carboxamide], the EC50 on TRPML1 and in the test with TFEB (setting [1]) was 1000 to 10000 nM in each case.
In the case of `O=C(Nc1cc(F)c(O[C@@H]2C[C@@H]3C[C@@H]3C2)c(F)c1)c1nc(N2CC3(CCCO3)C2)oc1CC(F)(F)F` [Example 173, N-(4-(cis-bicyclo[3.1.0]hexan-3-yloxy)-3,5-difluorophenyl)-2-(5-oxa-2-azaspiro[3.4]octan-2-yl)-5-(2,2,2-trifluoroethyl)oxazole-4-carboxamide], the EC50 on TRPML1 and in the test with TFEB (setting [1]) was 10 to 1000 nM in each case.
Take `CCc1oc(N2CC(CC)(CC)C2)nc1C(=O)Nc1ccc(O[C@@H]2C[C@@H]3C[C@@H]3C2)c(F)c1` [Example 245, N-(4-(cis-bicyclo[3.1.0]hexan-3-yloxy)-3-fluorophenyl)-2-(3,3-diethylazetidin-1-yl)-5-ethyloxazole-4-carboxamide]: the EC50 at TRPML1 and in the test with TFEB (setting [1]) was 10 to 1000 nM each time.
With `O=C(Nc1ccc(N2CCCCC2)c(F)c1)c1nc(N2CC3(C2)CC(F)(F)C3)oc1CC(F)(F)F` [Example 30, 2-{6,6-difluoro-2-azaspiro[3.3]heptan-2-yl}-N-[3-fluoro-4-(piperidin-1-yl)phenyl]-5-(2,2,2-trifluoroethyl)oxazole-4-carboxamide], the EC50 on TRPML1 and in the test with TFEB (setting [1]) was 1000 to 10000 nM throughout.
As for `CCC1(CC)CN(c2nc(C(=O)Nc3ccc(OC4CC5CC(C5)C4)c(F)c3)c(CCF)o2)C1` (stereo not shown) [Example 283, N-(4-(bicyclo[3.1.1]heptan-3-yloxy)-3-fluorophenyl)-2-(3,3-diethylazetidin-1-yl)-5-(2-fluoroethyl)oxazole-4-carboxamide], the EC50 on TRPML1 and with TFEB (setting [1]) was 10 to 1000 nM each time.
Consider `COCc1oc(N2CC(C)(CO)C2)nc1C(=O)Nc1cc(C)c(OC2CC3CC(C3)C2)c(F)c1` (stereo not shown) [Example 296, N-(4-(bicyclo[3.1.1]heptan-3-yloxy)-3-fluoro-5-methylphenyl)-2-(3-(hydroxymethyl)-3-methylazetidin-1-yl)-5-(methoxymethyl)oxazole-4-carboxamide], for which the EC50 at TRPML1 and in the test with TFEB (setting [1]) was 10 to 1000 nM throughout.
Take `CC1(C)CN(c2nc(C(=O)Nc3ccc(OC4CCCC4(F)F)c(F)c3)c(CC(F)(F)F)o2)C1` (stereo not shown) [Example 20, N-(4-((2,2-difluorocyclopentyl)oxy)-3-fluorophenyl)-2-(3,3-dimethylazetidin-1-yl)-5-(2,2,2-trifluoroethyl)oxazole-4-carboxamide]: the EC50 at TRPML1 and in the test on TFEB (setting [1]) was 10 to 1000 nM throughout.
For `CCN(C)Cc1oc(N2CC(CC)(OC)C2)nc1C(=O)Nc1cc(F)c(O[C@@H]2C[C@@H]3C[C@@H]3C2)c(F)c1` [Example 304, N-(4-(cis-bicyclo[3.1.0]hexan-3-yloxy)-3,5-difluorophenyl)-5-((ethyl(methyl)amino)methyl)-2-(3-ethyl-3-methoxyazetidin-1-yl)oxazole-4-carboxamide], the EC50 on TRPML1 and in the test on TFEB (setting [1]) was 10 to 1000 nM each time.
Regarding `O=C(Nc1ccc(OC2CCCC2)c(F)c1)c1nc(N2CC3(C2)CC(F)(F)C3)oc1CC(F)(F)F` [Example 48, N-[4-(cyclopentyloxy)-3-fluorophenyl]-2-{6,6-difluoro-2-azaspiro[3.3]heptan-2-yl}-5-(2,2,2-trifluoroethyl)oxazole-4-carboxamide], the EC50 was 1000 to 10000 nM on TRPML1 and 10 to 1000 nM with TFEB (setting [1]).
For `CCC1(CC)CN(c2nc(C(=O)Nc3cc(C)c(OC4CC5CC(C5)C4)c(O)c3)c(CC(F)(F)F)o2)C1` (stereo not shown) [Example 260, N-(4-(bicyclo[3.1.1]heptan-3-yloxy)-3-hydroxy-5-methylphenyl)-2-(3,3-diethylazetidin-1-yl)-5-(2,2,2-trifluoroethyl)oxazole-4-carboxamide] the same measures were 10 to 1000 nM and 10 to 1000 nM.
For `CCC1(CC)CN(c2nc(C(=O)Nc3cc(F)c(O[C@@H]4C[C@@H]5C[C@@H]5C4)c(F)c3)c(CCF)o2)C1` [Example 287, N-(4-(cis-bicyclo[3.1.0]hexan-3-yloxy)-3,5-difluorophenyl)-2-(3,3-diethylazetidin-1-yl)-5-(2-fluoroethyl)oxazole-4-carboxamide] the same measures were 10 to 1000 nM and 10 to 1000 nM.
For `COCC1(C)CN(c2nc(C(=O)Nc3cc(C)c(O[C@@H]4C[C@@H]5C[C@@H]5C4)c(F)c3)c(CC(F)(F)F)o2)C1` [Example 124, N-(4-(cis-bicyclo[3.1.0]hexan-3-yloxy)-3-fluoro-5-methylphenyl)-2-(3-(methoxymethyl)-3-methylazetidin-1-yl)-5-(2,2,2-trifluoroethyl)oxazole-4-carboxamide] the same measures were 10 to 1000 nM and 10 to 1000 nM.
On to `O=C(Nc1ccc(N2CCC(F)(F)CC2)c(F)c1)c1nc(N2CC3(C2)CC(F)(F)C3)oc1CC(F)(F)F` [Example 77, 2-{6,6-difluoro-2-azaspiro[3.3]heptan-2-yl}-N-[4-(4,4-difluoropiperidin-1-yl)-3-fluorophenyl]-5-(2,2,2-trifluoroethyl)oxazole-4-carboxamide], for which the EC50 on TRPML1 and with TFEB (setting [1]) was 1000 to 10000 nM each time.
Regarding `CCN(C)Cc1oc(N2CC(CC)(OC)C2)nc1C(=O)Nc1cc(O)c(OC2CC3CC(C3)C2)c(F)c1` (stereo not shown) [Example 309, N-(4-(bicyclo[3.1.1]heptan-3-yloxy)-3-fluoro-5-hydroxyphenyl)-5-((ethyl(methyl)amino)methyl)-2-(3-ethyl-3-methoxyazetidin-1-yl)oxazole-4-carboxamide], the EC50 was 1000 to 10000 nM at TRPML1 and 1000 to 10000 nM with TFEB (U2OS, 2 h).
For `O=C(Nc1ccc(OC2CCCC2(F)F)c(F)c1)c1nc(N2CCC3(CC3)C2)oc1CC(F)(F)F` (stereo not shown) [Example 21, N-(4-((2,2-difluorocyclopentyl)oxy)-3-fluorophenyl)-2-(5-azaspiro[2.4]heptan-5-yl)-5-(2,2,2-trifluoroethyl)oxazole-4-carboxamide], the EC50 on TRPML1 and in the test on TFEB (setting [1]) was 10 to 1000 nM in each case.
As for `CCC1(CC)CN(c2nc(C(=O)Nc3cc(F)c(OC4CCC5CC54)c(F)c3)c(CC(F)(F)F)o2)C1` (stereo not shown) [Example 155, N-(4-(bicyclo[3.1.0]hexan-2-yloxy)-3,5-difluorophenyl)-2-(3,3-diethylazetidin-1-yl)-5-(2,2,2-trifluoroethyl)oxazole-4-carboxamide], the EC50 at TRPML1 and in the test with TFEB (setting [1]) was 10 to 1000 nM each time.
`CCC1(COC)CN(c2nc(C(=O)Nc3cc(C)c(O[C@@H]4C[C@@H]5C[C@@H]5C4)c(F)c3)c(CC(F)(F)F)o2)C1` [Example 125, N-(4-(cis-bicyclo[3.1.0]hexan-3-yloxy)-3-fluoro-5-methylphenyl)-2-(3-(methoxymethyl)-3-ethylazetidin-1-yl)-5-(2,2,2-trifluoroethyl)oxazole-4-carboxamide]: the EC50 at TRPML1 and in the test with TFEB (setting [1]) was 10 to 1000 nM throughout.

For the origin of these results see patent publication US12098145B2 (Libra Therapeutics, Inc., priority 2022, dated 2024).
